Drawing on patent US7566791B2, “Substituted 3-carbonyl-1h-indol-1yl acetic acid derivatives as inhibitors of plasminogen activator inhibitor-1 (PAI-1)” (Wyeth, priority 2002, dated 2009), this text covers inhibition and melting point for three compounds.

Series [1] addresses T1, recombinant human plasminogen activator inhibitor-1 (Homo sapiens, UniProt P05121).
T1 construct: purchased Molecular Innovations, Royal Oak, Mich
In words: Primary screen for the PAI-1 inhibition (residual tPA activity, chromogenic Spectrozyme-tPA). Format: biochemical. Conditions: 25 uM test compound; pH 6.6 buffer, 140 nM PAI-1, 70 nM tPA. The protocol: Primary Screen for the PAI-1 Inhibition
Test compounds were dissolved in DMSO at a final concentration of 10 mM, then diluted 100× in physiologic buffer. The inhibitory assay was initiated by the addition of the test compound (1-100 μM final concentration, maximum DMSO concentration of 0.2%) in a pH 6.6 buffer containing 140 nM recombinant human plasminogen activator inhibitor-1 (Molecular Innovations, Royal Oak, Mich.). Following a 1 hour incubation at room temperature, 70 nM of recombinant human tissue plasminogen activator (tPA) was added, and the combination of the test compound, PAI-1 and tPA was incubated for an additional 30 minutes. Following the second incubation, Spectrozyme-tPA (American Diagnostica, Greenwich, Conn.), a chromogenic substrate for tPA, was added and absorbance was read at 405 nm at 0 and 60 minutes. Relative PAI-1 inhibition was equal to the residual tPA activity in the presence of the test compound and PAI-1. Control treatments included the complete inhibition of tPA by PAI-1 at the molar ratio employed (2:1), and the absence of any effect of the test compound on tPA alone.

T1 sequence (P05121 24-402): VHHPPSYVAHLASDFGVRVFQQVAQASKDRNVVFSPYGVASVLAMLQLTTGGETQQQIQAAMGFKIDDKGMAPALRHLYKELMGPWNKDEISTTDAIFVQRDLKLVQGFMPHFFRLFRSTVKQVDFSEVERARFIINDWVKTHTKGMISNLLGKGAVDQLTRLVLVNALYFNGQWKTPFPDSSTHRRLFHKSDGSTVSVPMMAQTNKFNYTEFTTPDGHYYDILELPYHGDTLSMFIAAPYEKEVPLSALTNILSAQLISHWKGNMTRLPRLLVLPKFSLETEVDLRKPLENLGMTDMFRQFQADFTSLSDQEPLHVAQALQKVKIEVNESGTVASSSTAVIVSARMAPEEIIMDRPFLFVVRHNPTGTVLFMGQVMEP

As a reminder, the inhibition is the change of the read-out against control, counted positive when it falls. Take `Cc1ccc(-c2ccc3c(c2)c(C(=O)c2ccc(Cl)cc2)cn3CC(=O)O)cc1` [Example 3, [3-(4-chlorobenzoyl)-5-(4-methylphenyl)-1H-indol-1-yl]-acetic acid]: in series [1], the inhibition at 25 µM was 46%.
Same read-out and setting: the figure for `Cc1ccc(-c2ccc3c(c2)c(C(=O)c2cc4ccccc4s2)cn3CC(=O)O)cc1` [Example 2, [3-(Benzo[b]thiophene-2-carbonyl)-5-(4-methylphenyl)-1H-indol-1-yl]-acetic acid] is 45%.
The melting point is the temperature of the solid-liquid transition. In the case of `O=C(O)Cn1cc(C(=O)c2ccc(Cl)cc2)c2cc(-c3ccc(Cl)cc3)ccc21` [Example 1, [3-(4-chlorobenzoyl)-5-(4-chlorophenyl)-1H-indol-1-yl]acetic acid], the melting point lay in the range of 255 to 257 °C. In addition, the inhibition at 25 µM in series [1] is 47%.
